Some test systems named below: HS 578T breast; UACC-257 melanoma; NCI-H226 lung; SW-620 colon; MDA-MB-231 breast; SF-268 CNS; U251 CNS; DU-145 prostate; SNB-19 CNS; TK-10 renal.
What all share (test): NCI-60 cell line screen, 48 h

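Interpolation was linear, between the two tested concentrations surrounding the appropriate level; five concentrations were tested over 48 hours in 96-well plates. The concentration for full growth arrest is given as TGI.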 Where only a bound is given, the exact number is not on record here.

Turning to `O=c1c2c([N+](=O)[O-])cccc2nc2[nH]c3ccccc3n12`, the TGI with HS 578T breast is greater than 75 µM; in the test on UACC-257 melanoma, greater than 75 µM; with NCI-H226 lung, greater than 75 µM; in the test on SW-620 colon it was greater than 75 µM; with MDA-MB-231 breast, 31.7 µM; in the test on SF-268 CNS, 62 µM. Also, the TGI in the test with U251 CNS was greater than 75 µM; with DU-145 prostate, greater than 75 µM; in the test on SNB-19 CNS, greater than 75 µM; in the test on TK-10 renal, 51.6 µM.

Regarding `Nc1cccc(Nc2nc3ccccc3nc2NS(=O)(=O)c2ccccc2)c1`, the TGI in the test with HS 578T breast is greater than 100 µM; in the test on UACC-257 melanoma, greater than 100 µM; with NCI-H226 lung, greater than 100 µM; in the test with SW-620 colon, 44.2 µM; with MDA-MB-231 breast, 36 µM; in the test on SF-268 CNS it was greater than 100 µM. The TGI with U251 CNS is 35.3 µM; in the test with DU-145 prostate it was greater than 100 µM; in the test with SNB-19 CNS it was 62.2 µM; in the test with TK-10 renal it was greater than 100 µM.

As to `CCOC(=O)/C=C(/C(=O)OCC)n1ccc(N)nc1=O`, the TGI with HS 578T breast, in the test on UACC-257 melanoma, in the test on NCI-H226 lung, with SW-620 colon, in the test with MDA-MB-231 breast and in the test with SF-268 CNS was greater than 100 µM each time. For the same molecule, the TGI in the test on U251 CNS, in the test with DU-145 prostate, in the test on SNB-19 CNS and in the test with TK-10 renal was greater than 100 µM each time.

For `O=c1c2ncn(COCCCl)c2n(-c2ccccc2)c(=S)n1-c1ccccc1`, the TGI with HS 578T breast, in the test with UACC-257 melanoma, with NCI-H226 lung, with SW-620 colon, with MDA-MB-231 breast and in the test on SF-268 CNS was greater than 100 µM each time. The TGI in the test on U251 CNS, in the test with DU-145 prostate, in the test on SNB-19 CNS and with TK-10 renal was greater than 100 µM each time.

As to `COc1ccc(/C=N/N=C(\N)NO)c(O)c1`, the TGI in the test on HS 578T breast, in the test with UACC-257 melanoma, with NCI-H226 lung, in the test on SW-620 colon, in the test with MDA-MB-231 breast and with SF-268 CNS was greater than 10 µM in each case. Also, the TGI in the test on U251 CNS, in the test with DU-145 prostate, in the test with SNB-19 CNS and in the test on TK-10 renal was greater than 10 µM in each case.

With `N#Cc1c(-c2ccccc2)nc(-c2ccccc2)sc1=S`, the TGI with HS 578T breast, in the test on UACC-257 melanoma, in the test on NCI-H226 lung, in the test with SW-620 colon, in the test on MDA-MB-231 breast and in the test with SF-268 CNS was greater than 100 µM in each case. Also, the TGI in the test with U251 CNS, in the test with DU-145 prostate, in the test with SNB-19 CNS and with TK-10 renal was greater than 100 µM throughout.

`CC(=O)O[C@H]1CC[C@@]2(C)C(=CC[C@H]3[C@@H]4C[C@H](N5CCCC5)[C@H](OC(C)=O)[C@@]4(C)CC[C@@H]32)C1`: the TGI in the test on HS 578T breast was greater than 100 µM; in the test on UACC-257 melanoma it was greater than 68.2 µM; in the test with NCI-H226 lung, greater than 100 µM; with SW-620 colon, greater than 100 µM; with MDA-MB-231 breast it was greater than 100 µM; in the test on SF-268 CNS, greater than 100 µM. Moreover, the TGI in the test with U251 CNS, in the test on DU-145 prostate, with SNB-19 CNS and in the test on TK-10 renal was greater than 100 µM throughout.

Take `NCCN=C(Nc1ccccc1)Nc1ccccc1`: the TGI in the test on HS 578T breast, in the test on UACC-257 melanoma, in the test with NCI-H226 lung, in the test with SW-620 colon, with MDA-MB-231 breast and in the test with SF-268 CNS was greater than 100 µM each time. For the same molecule, the TGI in the test on U251 CNS, in the test with DU-145 prostate, in the test on SNB-19 CNS and in the test with TK-10 renal was greater than 100 µM in each case.

For `O=C(O)c1ccc(S(=O)(=O)c2ccccc2[N+](=O)[O-])cc1`, the TGI in the test with HS 578T breast, in the test with UACC-257 melanoma, in the test with NCI-H226 lung, in the test with SW-620 colon, in the test with MDA-MB-231 breast and with SF-268 CNS was greater than 10 µM throughout. Moreover, the TGI in the test with U251 CNS, with DU-145 prostate, in the test with SNB-19 CNS and in the test with TK-10 renal was greater than 10 µM each time.

As to `Cc1cc(C)cc(Nc2cc(=O)[nH]c(=O)[nH]2)c1`, the TGI with HS 578T breast, in the test with UACC-257 melanoma, in the test on NCI-H226 lung, in the test with SW-620 colon, with MDA-MB-231 breast and in the test with SF-268 CNS was greater than 100 µM throughout. In addition, the TGI in the test on U251 CNS, with DU-145 prostate, with SNB-19 CNS and in the test on TK-10 renal was greater than 100 µM each time.

Regarding `CC1=NN(c2ccc(S(=O)(=O)O)cc2)C2(C1)SCC(=O)N2c1nc2ccccc2s1` (stereo not given), the TGI with HS 578T breast, in the test on UACC-257 melanoma, in the test with NCI-H226 lung, with SW-620 colon, in the test on MDA-MB-231 breast and with SF-268 CNS was greater than 100 µM in each case. Further, the TGI in the test with U251 CNS, with DU-145 prostate, in the test with SNB-19 CNS and in the test on TK-10 renal was greater than 100 µM each time.

`COc1ccc(Nc2nc(NS(=O)(=O)c3cc(C)c(Cl)cc3S)n[nH]2)cc1`: the TGI in the test with HS 578T breast, with UACC-257 melanoma, in the test with NCI-H226 lung, in the test with SW-620 colon, in the test with MDA-MB-231 breast and in the test with SF-268 CNS was greater than 100 µM each time. Further, the TGI in the test with U251 CNS, in the test with DU-145 prostate, with SNB-19 CNS and in the test on TK-10 renal was greater than 100 µM throughout.

With `CN(O)C(=O)c1cccc(Cl)c1`, the TGI in the test with HS 578T breast, in the test on UACC-257 melanoma, in the test on NCI-H226 lung, in the test with SW-620 colon, with MDA-MB-231 breast and in the test with SF-268 CNS was greater than 100 µM in each case. Further, the TGI in the test with U251 CNS, in the test with DU-145 prostate, in the test with SNB-19 CNS and with TK-10 renal was greater than 100 µM in each case.

Source of the values: PubChem BioAssay (NCI).
